# Measurements: patent publication US12448377B2, “Heterocyclic compound” (Takeda Pharmaceutical Company Limited, priority 2019, dated 2025)
# Target: T1, human orexin type 2 receptor (Homo sapiens, UniProt O43614)
# T1 construct: expressed in transfected cells
# T1 sequence (O43614 1-444): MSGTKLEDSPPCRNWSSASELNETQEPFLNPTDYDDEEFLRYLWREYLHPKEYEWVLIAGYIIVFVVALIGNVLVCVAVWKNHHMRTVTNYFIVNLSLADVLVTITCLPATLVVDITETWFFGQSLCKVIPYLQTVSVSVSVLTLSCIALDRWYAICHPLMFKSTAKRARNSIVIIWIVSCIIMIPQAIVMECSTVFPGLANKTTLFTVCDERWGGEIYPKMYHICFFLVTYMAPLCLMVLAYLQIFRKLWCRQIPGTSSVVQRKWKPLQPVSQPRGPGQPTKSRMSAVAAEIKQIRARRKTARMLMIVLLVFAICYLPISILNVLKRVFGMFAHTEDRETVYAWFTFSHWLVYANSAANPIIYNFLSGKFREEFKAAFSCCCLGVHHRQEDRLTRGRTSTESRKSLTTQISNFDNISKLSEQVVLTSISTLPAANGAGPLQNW
# Assay: Measurement of orexin type 2 receptor agonist activity (calcium fluorescence, CHO cells forcibly expressing human OX2 receptor)
# Assay type: cell-based
# Conditions: compound at 3 μM, DMSO = 0%, orexin A (human) 10 nM = 100%
# Excerpt: To obtain a cell clone stably expressing human orexin type 2 receptor, human orexin type 2 receptor cDNA was inserted into pcDNA3.1(+) plasmid vector (Invitrogen), and a plasmid DNA for expression of human orexin type 2 receptor (pcDNA3.1(+)/hOX2R) was cloned. The plasmid DNA was introduced into CHO-K1 cell by an electroporation method, and human orexin type 2 receptor-expressing clonal cells were obtained by limiting dilution method using G418 drug resistance as a selection marker.
# CHO cells forcibly expressing human OX2 receptor were seeded in each well of 384 well black transparent bottom plate (BD Falcon) at 10,000 cells/well, and cultured for one day in a 5% CO2 incubator at 37° C. After removal of the medium in the cell plate, assay buffer A containing a calcium indicator (HBSS (Thermo Fisher Scientific), 20 mM HEPES (Thermo Fisher Scientific), 0.1% BSA (Sigma-Aldrich), 2.5 μg/mL Fluo-4 AM (DOJINDO Chemical), 0.08% Pluronic F127 (DOJINDO Chemical), 1.25 mM probenecid (DOJINDO Chemical)) was added thereto at 30 μL/well. The plate was stood for 30 min in a 5% CO2 incubator at 37° C., and further stood at room temperature for 30 min. A test compound prepared by diluting with assay buffer B (HBSS, 20 mM HEPES, 0.1% BSA) was added thereto at 10 μL/well, and the fluorescence value was measured by FDSSμCELL (Hamamatsu Photonics K.K.) every one sec for 1 min, and thereafter every two sec for 1 min 40 sec. The activity (%) of the test compound was calculated assuming that variation in the fluorescence value when DMSO was added instead of the test compound was 0%, and variation in the fluorescence value when orexin A (human) (PEPTIDE INSTITUTE, INC.) was added at the final concentration of 10 nM was 100%.
row,SMILES,"OX2R agonist activity (3 μM, %) [%]"
1,"CCc1ccc2n(c1=O)C(COC1CCC(C)CC1)C(NS(=O)(=O)CC)CC2 [Example 71, rel-N-[(3S,4R)-7-ethyl-4-(([(1s,4S)-4-methylcyclohexyl]oxy}methyl)-6-oxo-1,3,4,6-tetrahydro-2H-quinolizin-3-yl)ethanesulfonamide]",99
2,"Cc1ccc2n(c1=O)C(COC1CCC(OC(C)C)CC1)C(NS(C)(=O)=O)CC2 (racemic) [Example 61, rac-N-{(3S,4R)-7-methyl-6-oxo-4-[({(1s,4S)-4-[(propan-2-yl)oxy]cyclohexyl}oxy)methyl]-1,3,4,6-tetrahydro-2H-quinolizin-3-yl)methanesulfonamide]",103
3,"CCC1CCC(OCC2C(NS(C)(=O)=O)CCc3c(Br)cc(C)c(=O)n32)CC1 [Example 106, rel-N-[(3S,4R)-9-bromo-4-({[(1s,4S)-4-ethylcyclohexyl]oxy}methyl)-7-methyl-6-oxo-1,3,4,6-tetrahydro-2H-quinolizin-3-yl]methanesulfonamide]",91
4,"Cc1cccc(C2CCC(OCC3C(NS(=O)(=O)C4CC4)CCc4ccc(C)c(=O)n43)CC2)c1 (racemic) [Example 25, rac-N-[(3S,4R)-7-methyl-4-({[(1s,4S)-4-(3-methylphenyl)cyclohexyl]oxy}methyl)-6-oxo-1,3,4,6-tetrahydro-2H-quinolizin-3-yl]cyclopropanesulfonamide]",92
5,"Cc1ccc2n(c1=O)C(COC1CCC(C(C)(C)C)CC1)C(NS(=O)(=O)N(C)C)CC2 (racemic) [Example 30, rac-N′-[(3S,4R)-4-({[(1s,4S)-4-tert-butylcyclohexyl]oxy}methyl)-7-methyl-6-oxo-1,3,4,6-tetrahydro-2H-quinolizin-3-yl]-N,N-dimethylsulfuric diamide]",94
6,"Cc1ccc2n(c1=O)C(COC1CCC(c3ccccc3C(F)(F)F)CC1)C(NS(C)(=O)=O)CC2 [Example 72, rel-N-{(3S,4R)-7-methyl-6-oxo-4-[({(1s,4S)-4-[2-(trifluoromethyl)phenyl]cyclohexyl}oxy)methyl]-1,3,4,6-tetrahydro-2H-quinolizin-3-yl]methanesulfonamide]",108
7,"CCS(=O)(=O)NC1CCc2ccc(C)c(=O)n2C1COC1CCC(c2ccccc2C)CC1 (racemic) [Example 23, rac-N-[(3S,4R)-7-methyl-4-({[(1s,4S)-4-(2-methylphenyl)cyclohexyl]oxy}methyl)-6-oxo-1,3,4,6-tetrahydro-2H-quinolizin-3-yl]ethanesulfonamide]",96
8,"CCC1CCC(OCC2C(NS(C)(=O)=O)CCc3c(C4CC4)cc(C)c(=O)n32)CC1 [Example 115, rel-N-[(3S,4R)-9-cyclopropyl-4-({[(1s,4S)-4-ethylcyclohexyl]oxy)methyl)-7-methyl-6-oxo-1,3,4,6-tetrahydro-2H-quinolizin-3-yl]methanesulfonamide]",100
9,"CCC1CCC(OCC2C(NS(=O)(=O)CC)CCc3ccc(C)c(=O)n32)CC1 (racemic) [Example 11, rac-N-[(3S,4R)-4-({[(1s,4S)-4-ethylcyclohexyl]oxy}methyl)-7-methyl-6-oxo-1,3,4,6-tetrahydro-2H-quinolizin-3-yl]ethanesulfonamide]",100
10,"Cc1ccc2n(c1=O)C(COC1CCC(c3ccccc3F)CC1)C(NS(=O)(=O)C1CC1)CC2 (racemic) [Example 45, rac-N-[(3S,4R)-4-({[(1s,4S)-4-(2-fluorophenyl)cyclohexyl]oxy}methyl)-7-methyl-6-oxo-1,3,4,6-tetrahydro-2H-quinolizin-3-yl]cyclopropanesulfonamide]",95
11,"COCCC1CCC(OCC2C(NS(C)(=O)=O)CCc3ccc(C)c(=O)n32)CC1 (racemic) [Example 83, rac-N-[(3S,4R)-4-({[(1s,4S)-4-(2-methoxyethyl)cyclohexyl]oxy}methyl)-7-methyl-6-oxo-1,3,4,6-tetrahydro-2H-quinolizin-3-yl]methanesulfonamide]",91
12,"CCC1CCC(OCC2C(NS(=O)(=O)C3CC3)CCc3ccc(C)c(=O)n32)CC1 (racemic) [Example 10, rac-N-[(3S,4R)-4-({[(1s,4S)-4-ethylcyclohexyl]oxy}methyl)-7-methyl-6-oxo-1,3,4,6-tetrahydro-2H-quinolizin-3-yl]cyclopropanesulfonamide]",97
13,"Cc1ccc2n(c1=O)C(COC1CCC(C(C)C)CC1)C(NS(=O)(=O)N(C)C)CC2 (racemic) [Example 28, rac-N,N-dimethyl-N′-[(3S,4R)-7-methyl-6-oxo-4-({[(1s,4S)-4-(propan-2-yl)cyclohexyl]oxy}methyl)-1,3,4,6-tetrahydro-2H-quinolizin-3-yl]sulfuric diamide]",92
14,"Cc1ccc2n(c1=O)C(COC1CCC(CC(C)C)CC1)C(NS(C)(=O)=O)CC2 (racemic) [Example 88, rac-N-[(3S,4R)-7-methyl-4-({[(1a,4S)-4-(2-methylpropyl)cyclohexyl]oxy}methyl)-6-oxo-1,3,4,6-tetrahydro-2H-quinolizin-3-yl]methanesulfonamide]",95
15,"Cc1ccc2n(c1=O)C(COC1CCC(COC3CCCCO3)CC1)C(NS(C)(=O)=O)CC2 (racemic) [Example 82, N-[(3SR,4RS)-7-methyl-4-(([(1s,4S)-4-{[(oxay-2-yl)oxy]methyl}cyclohexyl]oxy}methyl)-6-oxo-1,3,4,6-tetrahydro-2H-quinolizin-3-yl]methanesulfonamide]",56
16,"Cc1cccc(C2CCC(OCC3C(NS(C)(=O)=O)CCc4ccc(C)c(=O)n43)CC2)c1 (racemic) [Example 21, rac-N-[(3S,4R)-7-methyl-4-({[(1s,4S)-4-(3-methylphenyl)cyclohexyl]oxy}methyl)-6-oxo-1,3,4,6-tetrahydro-2H-quinolizin-3-yl]methanesulfonamide]",92
17,"Cc1ccc2n(c1=O)C(COC1CCC(CC(C)(C)O)CC1)C(NS(C)(=O)=O)CC2 (racemic) [Example 85, rac-N-[(3S,4R)-4-({[(1s,4S)-4-(2-hydroxy-2-methylpropyl)cyclohexyl]oxy}methyl)-7-methyl-6-oxo-1,3,4,6-tetrahydro-2H-quinolizin-3-yl]methanesulfonamide]",59
18,"CCOC1CCC(OCC2C(NS(C)(=O)=O)CCc3ccc(C)c(=O)n32)CC1 (racemic) [Example 59, rac-N-[(3S,4R)-4-({[(1s,4S)-4-ethoxycyclohexyl]oxy}methyl)-7-methyl-6-oxo-1,3,4,6-tetrahydro-2H-quinolizin-3-yl]methanesulfonamide]",93
19,"Cc1cccc(C2CCC(OCC3C(NS(=O)(=O)N(C)C)CCc4ccc(C)c(=O)n43)CC2)c1 (racemic) [Example 32, rac-N,N-dimethyl-N′-[(3S,4R)-7-methyl-4-({[(1s,4S)-4-(3-methylphenyl)cyclohexyl]oxy}methyl)-6-oxo-1,3,4,6-tetrahydro-2H-quinolizin-3-yl]sulfuric diamide]",81
20,"Cc1ccc2n(c1=O)C(COC1CCC(C3CCC3)CC1)C(NS(C)(=O)=O)CC2 (racemic) [Example 93, rac-N-[(3S,4R)-4-({[(1s,4S)-4-cyclobutylcyclohexyl]oxy}methyl)-7-methyl-6-oxo-1,3,4,6-tetrahydro-2H-quinolizin-3-yl]methanesulfonamide]",97
21,"CC#CC1CCC(OCC2C(NS(C)(=O)=O)CCc3ccc(C)c(=O)n32)CC1 (racemic) [Example 109, rac-N-[(3S,4R)-7-methyl-6-oxo-4-({[(1s,4S)-4-(prop-1-yn-1-yl)cyclohexyl]oxy}methyl)-1,3,4,6-tetrahydro-2H-quinolizin-3-yl]methanesulfonamide]",96
22,"C/C=C\C1CCC(OCC2C(NS(C)(=O)=O)CCc3ccc(C)c(=O)n32)CC1 (racemic) [Example 110, rac-N-{(3S,4R)-7-methyl-6-oxo-4-[({(1s,4S)-4-[(1Z)-prop-1-en-1-yl]cyclohexyl}oxy)methyl]-1,3,4,6-tetrahydro-2H-quinolizin-3-yl}methanesulfonamide]",91
